Measured values published in patent publication US20250320193A1, “OXOISOINDOLINYL SUBSTITUTED PIPERIDINEDIONE DERIVATIVE AND USE THEREOF” (GLUETACS THERAPEUTICS (SHANGHAI) CO., LTD., priority 2022, published 2025).

Tests used:
[1] = target: human Cereblon WT GST-tagged protein (Homo sapiens (Human), UniProt Q96SW2); experiment: CRBN-binding affinity, HTRF (CEREBLON BINDING kit, CISBIO); conditions: HTRF inhibitory activity
Method in brief: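 HTRF competition format: test compound displaces Thalidomide-Red from GST-tagged human Cereblon WT, detected with a Eu-labelled anti-GST antibody. Percent CRBN binding inhibition was derived from the 620 nm signal, normalized to solvent-control and protein-free blank wells.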

IKZF1 = IKZF1 (Homo sapiens (Human), UniProt Q13422+Q96SW2); experiment: Western blot, substrate protein expression in hPBMC: IKZF1; assay type: cell-based; conditions: hPBMC, compound 500 nM, 24 hours, Western blot
Sequence of IKZF1 (Q13422 whole entry): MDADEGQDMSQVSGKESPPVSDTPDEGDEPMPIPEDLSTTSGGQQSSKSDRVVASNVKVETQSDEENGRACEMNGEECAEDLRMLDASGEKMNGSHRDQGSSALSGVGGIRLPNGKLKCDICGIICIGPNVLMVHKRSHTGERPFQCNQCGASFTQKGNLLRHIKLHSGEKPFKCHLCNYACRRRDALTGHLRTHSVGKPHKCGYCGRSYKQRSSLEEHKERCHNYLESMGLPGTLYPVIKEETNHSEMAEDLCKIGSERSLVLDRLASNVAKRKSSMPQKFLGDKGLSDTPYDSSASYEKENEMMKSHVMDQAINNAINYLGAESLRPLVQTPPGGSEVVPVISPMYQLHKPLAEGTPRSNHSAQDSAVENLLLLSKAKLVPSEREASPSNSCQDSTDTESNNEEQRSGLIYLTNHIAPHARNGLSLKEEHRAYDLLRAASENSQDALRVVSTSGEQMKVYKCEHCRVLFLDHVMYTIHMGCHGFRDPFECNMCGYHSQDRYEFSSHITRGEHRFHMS
Sequence of IKZF1 (Q96SW2 whole entry): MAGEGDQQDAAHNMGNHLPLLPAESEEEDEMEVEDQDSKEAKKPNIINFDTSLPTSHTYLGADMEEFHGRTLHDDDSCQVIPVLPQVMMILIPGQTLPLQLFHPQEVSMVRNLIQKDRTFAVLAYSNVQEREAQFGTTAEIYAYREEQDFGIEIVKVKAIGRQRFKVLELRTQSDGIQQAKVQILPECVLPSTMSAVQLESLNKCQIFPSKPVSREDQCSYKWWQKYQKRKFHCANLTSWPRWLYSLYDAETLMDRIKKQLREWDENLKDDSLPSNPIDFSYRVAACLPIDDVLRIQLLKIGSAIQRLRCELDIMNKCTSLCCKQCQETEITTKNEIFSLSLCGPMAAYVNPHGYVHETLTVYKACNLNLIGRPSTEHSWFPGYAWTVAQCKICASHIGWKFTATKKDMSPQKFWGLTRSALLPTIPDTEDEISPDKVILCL
Sequence of IKZF1 (Q16531 whole entry partner): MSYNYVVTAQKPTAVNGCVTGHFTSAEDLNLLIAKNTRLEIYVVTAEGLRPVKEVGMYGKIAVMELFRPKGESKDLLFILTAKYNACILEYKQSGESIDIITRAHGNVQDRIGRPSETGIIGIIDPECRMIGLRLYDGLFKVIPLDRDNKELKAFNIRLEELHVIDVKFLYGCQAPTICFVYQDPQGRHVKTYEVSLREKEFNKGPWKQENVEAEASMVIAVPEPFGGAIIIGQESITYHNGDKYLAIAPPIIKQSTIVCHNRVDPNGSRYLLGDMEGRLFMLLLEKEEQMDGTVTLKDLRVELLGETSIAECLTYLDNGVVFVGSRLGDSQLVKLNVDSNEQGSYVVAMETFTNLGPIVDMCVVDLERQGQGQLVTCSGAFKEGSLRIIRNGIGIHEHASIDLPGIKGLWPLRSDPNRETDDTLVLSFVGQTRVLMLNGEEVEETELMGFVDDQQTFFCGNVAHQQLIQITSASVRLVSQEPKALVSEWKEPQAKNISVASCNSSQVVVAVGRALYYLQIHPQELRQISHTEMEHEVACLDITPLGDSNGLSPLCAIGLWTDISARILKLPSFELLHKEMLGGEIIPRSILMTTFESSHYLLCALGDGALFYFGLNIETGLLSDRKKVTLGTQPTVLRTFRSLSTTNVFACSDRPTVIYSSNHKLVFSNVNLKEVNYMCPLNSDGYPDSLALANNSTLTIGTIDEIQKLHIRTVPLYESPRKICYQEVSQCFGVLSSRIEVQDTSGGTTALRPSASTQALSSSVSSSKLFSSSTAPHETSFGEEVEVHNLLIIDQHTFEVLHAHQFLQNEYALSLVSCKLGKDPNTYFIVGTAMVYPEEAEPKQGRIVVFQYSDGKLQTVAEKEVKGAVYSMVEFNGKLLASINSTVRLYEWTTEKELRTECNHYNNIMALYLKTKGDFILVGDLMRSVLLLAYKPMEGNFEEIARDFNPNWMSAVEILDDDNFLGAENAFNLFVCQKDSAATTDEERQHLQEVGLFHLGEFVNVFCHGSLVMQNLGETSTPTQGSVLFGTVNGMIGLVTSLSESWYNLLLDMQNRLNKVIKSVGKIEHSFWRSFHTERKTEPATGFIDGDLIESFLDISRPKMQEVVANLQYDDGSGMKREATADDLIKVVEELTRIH
Method in brief: (§1)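 hPBMC, 1×10^6 cells/mL, 24 h compound exposure; RIPA lysis, BCA protein assay, SDS-PAGE, NC membrane immunoblot. Densitometry vs internal control → % protein remaining; degradation % = 100% − remaining; DC50 = conc. at 50% of DMSO band signal.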

IKZF3 = IKZF3 (Homo sapiens (Human), UniProt Q96SW2+Q9UKT9); experiment: Western blot, substrate protein expression in hPBMC: IKZF3; assay type: cell-based; conditions: hPBMC, compound 500 nM, 24 hours, Western blot
Sequence of IKZF3 (Q9UKT9 whole entry): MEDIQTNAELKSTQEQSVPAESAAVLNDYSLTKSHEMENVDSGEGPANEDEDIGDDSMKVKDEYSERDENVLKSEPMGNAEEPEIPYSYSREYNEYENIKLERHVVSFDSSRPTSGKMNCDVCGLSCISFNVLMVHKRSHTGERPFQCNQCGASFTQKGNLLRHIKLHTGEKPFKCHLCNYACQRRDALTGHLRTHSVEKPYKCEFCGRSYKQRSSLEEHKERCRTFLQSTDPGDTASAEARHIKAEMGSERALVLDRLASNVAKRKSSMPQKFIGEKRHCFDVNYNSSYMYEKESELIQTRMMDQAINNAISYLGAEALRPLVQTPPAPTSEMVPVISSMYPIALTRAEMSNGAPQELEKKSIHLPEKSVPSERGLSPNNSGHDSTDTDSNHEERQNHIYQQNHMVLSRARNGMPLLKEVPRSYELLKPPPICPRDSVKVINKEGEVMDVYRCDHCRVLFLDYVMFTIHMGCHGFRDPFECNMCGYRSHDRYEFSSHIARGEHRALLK
Sequence of IKZF3 (Q96SW2 whole entry): as the sequence (Q96SW2 whole entry) above
Sequence of IKZF3 (Q16531 whole entry partner): as the sequence (Q16531 whole entry partner) above
Method in brief: as §1

GSPT1 = GSPT1 (Homo sapiens (Human), UniProt P15170+Q96SW2); experiment: Western blot, substrate protein expression in hPBMC: GSPT1; assay type: cell-based; conditions: hPBMC, compound 500 nM, 24 hours, Western blot
Sequence of GSPT1 (P15170 whole entry): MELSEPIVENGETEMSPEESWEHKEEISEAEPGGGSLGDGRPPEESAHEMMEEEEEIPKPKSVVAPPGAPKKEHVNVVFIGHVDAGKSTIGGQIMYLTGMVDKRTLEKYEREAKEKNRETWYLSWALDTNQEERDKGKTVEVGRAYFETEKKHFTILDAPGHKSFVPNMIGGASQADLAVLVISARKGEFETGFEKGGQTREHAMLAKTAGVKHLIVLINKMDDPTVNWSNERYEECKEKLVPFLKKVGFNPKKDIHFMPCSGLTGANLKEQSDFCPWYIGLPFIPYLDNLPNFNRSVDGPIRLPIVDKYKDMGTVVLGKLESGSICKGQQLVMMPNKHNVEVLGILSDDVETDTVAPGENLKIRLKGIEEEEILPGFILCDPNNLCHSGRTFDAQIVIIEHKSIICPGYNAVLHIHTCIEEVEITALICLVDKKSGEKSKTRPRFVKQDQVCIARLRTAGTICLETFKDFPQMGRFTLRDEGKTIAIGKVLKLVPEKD
Sequence of GSPT1 (Q96SW2 whole entry): as the sequence (Q96SW2 whole entry) above
Sequence of GSPT1 (Q16531 whole entry partner): as the sequence (Q16531 whole entry partner) above
Method in brief: as §1

[2] = system: CAL-62 (human thyroid carcinoma cells); experiment: Tumor cell proliferation inhibition, CCK-8; assay type: cell-based; conditions: CAL-62 cells, CCK-8, read-out: inhibitory activity (IC50, nM) CAL-62
Method in brief: (§2)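 Cells were seeded, left for 24 h, then exposed to compound at 10 concentrations from a top of 10 μM in 5-fold serial dilutions. Viability was then read with CCK-8 reagent, and IC50 values came from the growth-inhibition curves.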

[3] = system: CCRF-CEM (human acute lymphoblastic leukemia T-cells); experiment: Tumor cell proliferation inhibition, CCK-8; assay type: cell-based; conditions: CCRF-CEM cells, CCK-8, read-out: inhibitory activity (IC50, nM) CCRF-CEM
Method in brief: as §2

[4] = system: H146 cells (human small cell lung carcinoma cells); experiment: Tumor cell proliferation inhibition, CCK-8; assay type: cell-based; conditions: NCI-H146, H146 cells, CCK-8, read-out: inhibitory activity (IC50, nM) H146
Method in brief: as §2

[5] = system: Jurkat cells (human T-cell leukemia cells); experiment: Tumor cell proliferation inhibition, CCK-8; assay type: cell-based; conditions: Jurkat cells, CCK-8, read-out: inhibitory activity (IC50, nM) Jurkat
Method in brief: as §2

[6] = system: Kasumi-1 (human acute myeloid leukemia cells); experiment: Tumor cell proliferation inhibition, CCK-8; assay type: cell-based; conditions: Kasumi-1 cells, CCK-8, read-out: inhibitory activity (IC50, nM) Kasumi-1
Method in brief: as §2

[7] = system: MDA-MB-231 cells (human breast adenocarcinoma cells); experiment: Tumor cell proliferation inhibition, CCK-8; assay type: cell-based; conditions: MDA-MB-231 cells, CCK-8, read-out: inhibitory activity (IC50, nM) MDA-MB-231
Method in brief: as §2

[8] = system: MM.1R cells (dexamethasone-resistant human multiple myeloma cells); experiment: Tumor cell proliferation inhibition, CCK-8; assay type: cell-based; conditions: MM.1R cells, CCK-8, read-out: inhibitory activity (IC50, nM) MM.1R
Method in brief: as §2

[9] = system: MM.1S cells (human multiple myeloma cells); experiment: Tumor cell proliferation inhibition, CCK-8; assay type: cell-based; conditions: MM1.S, MM.1S cells, CCK-8, read-out: inhibitory activity (IC50, nM) MM.1S
Method in brief: as §2

[10] = system: TMD8 cells (human diffuse large B-cell lymphoma cells); experiment: Tumor cell proliferation inhibition, CCK-8; assay type: cell-based; conditions: TMD8 cells, CCK-8, read-out: inhibitory activity (IC50, nM) TMD8
Method in brief: as §2

Sequence of human Cereblon WT GST-tagged protein (Q96SW2 whole entry): as the sequence (Q96SW2 whole entry) above

IC50 [1]: 500 to 1000 nM
IC50 [2]: 1 to 10 nM
IC50 [3]: 1 to 10 nM
IC50 [4]: 50 to 100 nM
IC50 [5]: 1 to 10 nM
IC50 [6]: 1 to 10 nM
IC50 [7]: 10 to 50 nM
IC50 [8]: 1 to 10 nM
IC50 [9]: 1 to 10 nM
IC50 [10]: 100 to 500 nM
SMILES: O=C1CCC(N2Cc3cc(CN4CCN(C(c5ccccc5)c5ccccn5)CC4)ccc3C2=O)C(=O)N1 (stereo not shown) [GT-03835, 3-(1-oxo-5-((4-(phenyl(pyridin-2-yl)methyl)piperazin-1-yl)methyl)isoindolin-2-yl)piperidine-2,6-dione]
substrate protein remaining % IKZF1 (IKZF1): A (A represents 0% ≤ substrate protein remaining % ≤ 50%)
substrate protein remaining % IKZF3 (IKZF3): A (A represents 0% ≤ substrate protein remaining % ≤ 50%)
substrate protein remaining % GSPT1 (GSPT1): A (A represents 0% ≤ substrate protein remaining % ≤ 50%)
